pKd: −log10 of the molar value.
How the values were obtained:
[1] = target: T1, human orexin 1 receptor (hOx1R) (Homo sapiens, UniProt O43613); test: Radioligand binding assay ([125I]orexin A competition), hOx1R; conditions: CHO or HEK cell membranes, 1 h room temperature
T1 construct: expressed in transfected cells
T1 sequence (O43613 1-425): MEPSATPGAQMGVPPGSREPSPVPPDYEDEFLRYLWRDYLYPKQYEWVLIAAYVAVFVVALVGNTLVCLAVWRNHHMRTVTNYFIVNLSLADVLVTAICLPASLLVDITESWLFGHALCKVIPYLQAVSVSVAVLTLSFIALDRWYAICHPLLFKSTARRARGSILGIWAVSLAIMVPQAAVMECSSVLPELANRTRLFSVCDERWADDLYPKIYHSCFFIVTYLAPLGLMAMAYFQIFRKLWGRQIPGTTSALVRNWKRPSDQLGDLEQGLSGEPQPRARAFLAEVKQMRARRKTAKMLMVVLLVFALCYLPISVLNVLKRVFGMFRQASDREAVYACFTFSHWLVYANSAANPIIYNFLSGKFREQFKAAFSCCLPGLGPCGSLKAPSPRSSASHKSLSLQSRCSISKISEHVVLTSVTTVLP
Summary of the method: (§1)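 Membranes from CHO or HEK cells expressing the human receptor, incubated 1 h at room temperature with […] [125I]orexin A and compound in HEPES pH 7.5 buffer with BSA, MgCl2, CaCl2 and tween.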

[2] = target: T2, human orexin 2 receptor (hOx2R) (Homo sapiens, UniProt O43614); test: Calcium accumulation in cells (FLIPR), antagonism of orexin A, hOx2R; type: cell-based; conditions: for inhibition at 10 µM: measured at a concentration of 10 μM of compound (cells marked ^a); for pKd: cells expressing human orexin 2 receptor, IC50 vs orexin A converted by Cheng and Prusoff correction
T2 construct: expressed in transfected cells
T2 sequence (O43614 1-444): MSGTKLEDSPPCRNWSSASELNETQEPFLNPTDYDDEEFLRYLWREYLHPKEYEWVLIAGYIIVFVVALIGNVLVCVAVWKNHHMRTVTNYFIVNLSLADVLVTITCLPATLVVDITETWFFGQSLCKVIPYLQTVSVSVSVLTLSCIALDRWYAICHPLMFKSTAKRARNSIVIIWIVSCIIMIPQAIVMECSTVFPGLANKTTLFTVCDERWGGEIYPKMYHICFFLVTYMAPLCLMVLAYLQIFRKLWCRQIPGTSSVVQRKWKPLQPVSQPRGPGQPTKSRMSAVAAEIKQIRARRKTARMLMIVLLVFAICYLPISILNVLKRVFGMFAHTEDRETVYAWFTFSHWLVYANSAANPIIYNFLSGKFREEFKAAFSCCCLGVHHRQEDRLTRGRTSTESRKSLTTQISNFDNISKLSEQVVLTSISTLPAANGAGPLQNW
Summary of the method: (§2)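 Serum-starved receptor-expressing cells were loaded with Fluo-4-AM (2 μM) plus probenecid (0.1 mM) in HEPES buffer, pH 7.4, with 1% BSA, and Ca2+ fluorescence was read on FLIPR. Compounds (10^−9–10^−5 M) were added first, and orexin A was added one hour later to measure antagonism.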

[3] = target: T1, human orexin 1 receptor (hOx1R); test: Calcium accumulation in cells (FLIPR), antagonism of orexin A, hOx1R; type: cell-based; conditions: for inhibition at 10 µM: measured at a concentration of 10 μM of compound (cells marked ^a); for pKd: cells expressing human orexin 1 receptor, IC50 vs orexin A converted by Cheng and Prusoff correction
Summary of the method: as §2

[4] = target: T2, human orexin 2 receptor (hOx2R); test: Radioligand binding assay ([125I]orexin A competition), hOx2R; conditions: CHO or HEK cell membranes, 1 h room temperature
Summary of the method: as §1

| Compound | pKd [1] | inhibition at 10 µM [2] [%] | inhibition at 10 µM [3] [%] | pKd [4] | pKd [2] | pKd [3] |
| --- | --- | --- | --- | --- | --- | --- |
| CN(C(=O)c1cccc2c1OCO2)[C@H](CCNC(=O)c1ccccn1)Cc1ccc(Cl)cc1 [Example 65, Pyridine-2-carboxylic acid [(S)-3-[(benzo[1,3]dioxole-4-carbonyl)-methyl-amino]-4-(4-chloro-phenyl)-butyl]-amide] | < 5.00 | 41 | 3 | 5.16 |  |  |
| CN(C(=O)c1cc(C(F)(F)F)cc(C(F)(F)F)c1)C(CCNC(=O)c1ccc2c(ccn2C)c1)Cc1ccccc1 (stereo not shown) [Example 60, 1-Methyl-1H-indole-5-carboxylic acid {3-[(3,5-bis-trifluoromethyl-benzoyl)-methyl-amino]-4-phenyl-butyl}-amide] | 4.76 |  |  | 5.41 | 6.44 | 5.46 |
| COc1cc(OC)cc(C(=O)N(C)[C@H](CCNC(=O)c2ccccn2)Cc2ccccc2)c1 [Example 41, Pyridine-2-carboxylic acid {(S)-3-[(3,5-dimethoxy-benzoyl)-methyl-amino]-4-phenyl-butyl}-amide] | 5.76 |  |  | 6.32 | 6.71 | 5.80 |
| CN(C(=O)c1ccccc1)[C@H](CCNC(=O)c1cccc2cccnc12)Cc1ccccc1 [Example 49, Quinoline-8-carboxylic acid [(S)-3-(benzoyl-methyl-amino)-4-phenyl-butyl]-amide] | 5.61 |  | 9 | 5.97 | 6.38 |  |
| CN(C(=O)c1cccc(C(F)(F)F)c1)[C@H](CCNC(=O)c1ccccn1)Cc1ccccc1 [Example 4, Pyridine-2-carboxylic acid {(S)-3-[methyl-(3-trifluoromethyl-benzoyl)-amino]-4-phenyl-butyl}-amide] | 6.95 |  |  | 7.85 | 7.36 | 6.76 |
| CN(C(=O)c1cc(C(F)(F)F)cc(C(F)(F)F)c1)[C@@H](CCNC(=O)c1ccccn1)Cc1ccccc1 [Example 74, Pyridine-2-carboxylic acid {(R)-3-[(3,5-bis-trifluoromethyl-benzoyl)-methyl-amino]-4-phenyl-butyl}-amide] | < 5.00 |  |  | < 5.00 | 5.79 | 5.49 |
| CN(C(=O)c1ccc(C(F)(F)F)cc1)[C@H](CCNC(=O)c1ccccn1)Cc1ccccc1 [Example 73, Pyridine-2-carboxylic acid {(S)-3-[methyl-(4-trifluoromethyl-benzoyl)-amino]-4-phenyl-butyl}-amide] | < 5.00 |  |  | < 5.00 | 5.88 | 5.72 |
| CCN(C(=O)c1cccc2c1OCO2)[C@H](CCNC(=O)c1ccccn1)Cc1ccccc1 [Example 45, Pyridine-2-carboxylic acid {(S)-3-[(benzo[1,3]dioxole-4-carbonyl)-ethyl-amino]-4-phenyl-butyl}-amide] | 5.27 |  |  | 6.13 | 6.37 | 5.57 |
| COc1ccc(C(=O)N(C)[C@H](CCNC(=O)c2ccccn2)Cc2ccccc2)cc1 [Example 42, Pyridine-2-carboxylic acid {(S)-3-[(4-methoxy-benzoyl)-methyl-amino]-4-phenyl-butyl}-amide] | 5.76 |  |  | 6.16 | 6.08 | 6.04 |
| Cc1cccc(C(=O)N(C)[C@H](CCNC(=O)c2cccn2C)Cc2ccccc2)c1 [Example 119, 1-Methyl-1H-pyrrole-2-carboxylic acid {(8)-3-[methyl-(3-methyl-benzoyl)-amino]-4-phenyl-butyl}-amide] | 6.60 |  |  | 7.85 | 8.40 | 6.27 |
| COc1cc(OC)cc(C(=O)N(C)[C@H](CCNC(=O)c2cccn2C)Cc2ccccc2)c1 [Example 104, 1-Methyl-1H-pyrrole-2-carboxylic acid {(S)-3-[(3,5-dimethoxy-benzoyl)-methyl-amino]-4-phenyl-butyl}-amide] | 6.91 |  |  | 8.22 | 8.40 | 6.22 |
| CN(C(=O)c1cccc2c1OCO2)[C@H](CCNC(=O)c1nc2ccccc2n1C)Cc1ccc(F)cc1 [Example 56, 1-Methyl-1H-benzoimidazole-2-carboxylic acid [(S)-3-[(benzo[1,3]dioxole-4-carbonyl)-methyl-amino]-4-(4-fluoro-phenyl)-butyl]-amide] | < 5.00 | 35 | 1 | 5.57 |  |  |
| CN(C(=O)c1ccc2c(c1)OCC2)[C@H](CCNC(=O)c1cccn1C)Cc1ccccc1 [Example 117, 1-Methyl-1H-pyrrole-2-carboxylic acid {(S)-3-[(2,3-dihydro-benzofuran-6-carbonyl)-methyl-amino]-4-phenyl-butyl}-amide] | 6.35 |  |  | 7.09 | 7.19 | 6.01 |
| CN(C(=O)c1cc(F)cc(F)c1)[C@H](CCNC(=O)c1ccccn1)Cc1ccccc1 [Example 34, Pyridine-2-carboxylic acid {(S)-3-[(3,5-difluoro-benzoyl)-methyl-amino]-4-phenyl-butyl}-amide] | 6.60 |  |  | 6.33 | 6.25 | 6.14 |
| CN(C(=O)c1ccccc1)[C@H](CCNC(=O)c1nc2ccccc2n1C)Cc1ccccc1 [Example 48, 1-Methyl-1H-benzoimidazole-2-carboxylic acid [(S)-3-(benzoyl-methyl-amino)-4-phenyl-butyl]-amide] | 5.55 |  |  | 6.03 | 7.08 | 6.06 |
| CCOc1cc(OCC)cc(C(=O)N(C)[C@H](CCNC(=O)c2cccn2C)Cc2ccccc2)c1 [Example 122, 1-Methyl-1H-pyrrole-2-carboxylic acid {(S)-3-[(3,5-diethoxy-benzoyl)-methyl-amino]-4-phenyl-butyl}-amide] | 6.48 |  |  | 7.68 | 7.62 | 6.11 |
| CCCCC(=O)NCCC(Cc1ccccc1)N(C)C(=O)c1cc(C(F)(F)F)cc(C(F)(F)F)c1 (stereo not shown) [Example 39, N-(1-Benzyl-3-pentanoylamino-propyl)-N-methyl-3,5-bis-trifluoromethyl-benzamide] | < 5.00 |  | 0 | 6.21 | 6.38 |  |
| CN(C(=O)c1ccc(C(F)(F)F)c(C(F)(F)F)c1)[C@H](CCNC(=O)c1ccccn1)Cc1ccccc1 [Example 77, Pyridine-2-carboxylic acid {(8)-3-[(3,4-bis-trifluoromethyl-benzoyl)-methyl-amino]-4-phenyl-butyl}-amide] | 5.07 |  | 25 | 5.43 | 6.24 |  |
| CN(C(=O)c1ccc2ccccc2c1)[C@H](CCNC(=O)c1nc2ccccc2n1C)Cc1ccc(F)cc1 [Example 57, 1-Methyl-1H-benzoimidazole-2-carboxylic acid {(S)-4-(4-fluoro-phenyl)-3-[methyl-(naphthalene-2-carbonyl)-amino]-butyl}-amide] | 6.35 |  |  | 5.55 | 7.59 | 7.92 |
| CN(C(=O)c1ccc2c(c1)OCO2)[C@H](CCNC(=O)c1nccn1C)Cc1ccccc1 [Example 78, 1-Methyl-1H-imidazole-2-carboxylic acid {(S)-3-[(benzo[1,3]dioxole-5-carbonyl)-methyl-amino]-4-phenyl-butyl}-amide] | 6.18 |  |  | 7.62 | 7.55 | 5.83 |
| CN(C(=O)c1cccc2ccn(C)c12)[C@H](CCNC(=O)c1ccccn1)Cc1ccccc1 [Example 36, 1-Methyl-1H-indole-7-carboxylic acid {(S)-1-benzyl-3-[(pyridine-2-carbonyl)-amino]-propyl}-methyl-amide] | 6.07 |  | 37 | 6.33 | 6.25 |  |
| CN(C(=O)c1cccc2ccccc12)[C@H](CCNC(=O)c1ccccn1)Cc1ccccc1 [Example 6, Pyridine-2-carboxylic acid {(S)-3-[methyl-(naphthalene-1-carbonyl)-amino]-4-phenyl-butyl}-amide] | 7.60 |  |  | 7.70 | 7.24 | 7.51 |

From patent US20100222396A1 (Novartis AG, priority 2009, published 2010)
